Test results from patent US20180050033A1, “ANTIFUNGAL TREATMENT OF RHEUMATOID ARTHRITIS” (Gerbe Labs Inc., priority 2016, published 2018).
Converted amounts (≈) assume the structure as drawn.

What was measured:
Assay type in all cases: cell-based
[1] = tested on: Aspergillus fumigatus MYA3626 spores; assay: Broth microdilution MIC assay; conditions: MYA3626SPORES
Description: (§1) Broth Microdilution Minimal Inhibitory Concentration (MIC) assays were performed to obtain the MIC values for Itraconazole and Ketoconazole with an antibiotic (Vancomycin or Tobramycin or Amikacin) against the two fungal strains.
(§2) Fungal strains: Aspergillus fumigatus MYA3626 and Candida albicans ATCC 90028 strains were obtained from the American Type Culture Collection (Manassas, Va.). The strains were maintained as a frozen glycerol stocks at −80° C. The fungal strains were prepared by thawing a glycerol stock, streaking and growing onto Sabouraud's Dextrose Agar (SDA) plates, overnight at 35±2° C. in aerobic conditions and used for the assay.
(§3) Antifungal agents: Itraconazole (Cat #16657, Lot #087K1322), Ketoconazole (Cat # K1003, Lot # SLBR1290V). Stocks were prepared in appropriate solvents following the CLSI guidelines. See, for example, Reference method for broth dilution antifungal susceptibility testing of filamentous fungi, approved standard, 2nd ed. CLSI document M38-A2, vol. 28. CLSI, Wayne, Pa. (2008).
(§4) The completely synthetic medium RPMI-1640 (with glutamine, without bicarbonate, and with phenol red as a pH indicator) was buffered with 0.165 mol/L MOPS (3-[N-morpholino] propanesulfonic acid) buffer was used as the growth medium for the fungal strains. Overnight cultures of the fungal strains were grown on Difco™ Sabouraud's Dextrose Agar (SDA) plates at 35° C. To induce conidium and sporangiospore formation, the culture plates were transferred to incubator and grown for 5-7 days 30° C. or until good sporulation was obtained. Approximately, 10 mL of 0.85% saline containing 0.01% of Tween 80 was used to poured on to the agar plate containing conidia or sporangiospores and hyphal fragments. The suspension containing conidia or sporangiospores and hyphal fragments was aspirated and transferred to a sterile tube. This mixture was filtered to separate the spores from the vegetative cells of the fungi. The supernatant containing only fungal spores was used for all the assays. Fungal spore inoculum was prepared in RPMI-1640 (with glutamine, without bicarbonate, and with phenol red as a pH indicator) was buffered with 0.165 mol/L MOPS (3-[N-morpholino] propanesulfonic acid) buffer to a final density of 10^6 CFU/mL using a hemocytometer.
(§5) Each MIC assay included 11 2-fold serial dilutions of the antifungal agents. Test concentrations for the test articles were tested at the following concentrations: 64 μg/mL, 32 μg/mL, 16 μg/mL, 8 μg/mL, 4 μg/mL, 2 μg/mL, 1 μg/mL, 0.5 μg/mL, 0.25 μg/mL, 0.125 μg/mL, and 0.0625 μg/mL. Broth microdilution assays were performed according to the procedures detailed in CLSI document M38-A2 (CLSI, 2008). Briefly, 2× stock solutions of test articles were prepared at 128 μg/mL. A two-fold serial dilution of the stock solution were performed. Diluted stock solutions of the fungal spores were adjusted (to be equivalent to 10^6 CFU/mL). 1× final concentration of the antifungals was obtained when they were combined with the fungal spore broth in the microtiter plate. Plates were incubated for 3-5 days at 35±2° C. in an ambient air incubator. MIC values recorded are the minimum concentration of the test articles that inhibits growth as observed by unaided eye. The MIC values was expressed in μg/mL. The assay was carried out in duplicates.

[2] = tested on: Candida albicans ATCC 90028 spores; assay: Broth microdilution MIC assay; conditions: Candida albicans alone
Description: as §1, §2, §3, §4, §5

[3] = tested on: co-culture of Aspergillus fumigatus + Candida albicans spores (1:1); assay: Broth microdilution MIC assay, co-culture
Description: as §1, §2, §3, §4, §5

[4] = tested on: Aspergillus fumigatus MYA3626 spores; assay: Checkerboard synergy assay; conditions: MYA3626SPORES, FIG. 5 synergy data, agent alone
Description: (§6) This study evaluated the synergistic activity of 2 antifungal agents (Itraconazole and Ketoconazole) with an antibiotic (Vancomycin or Tobramycin or Amikacin) against the spores of 2 fungi; Aspergillus fumigatus MYA3626 and Candida albicans ATCC 90028; individually as well as in co-cultivation (Aspergillus fumigatus+Candida albicans). Synergy testing was carried out as per checkerboard assay by Victor Lorian methodology. See, for example, Lorian, V. Antibiotics in Laboratory Medicine. Edition 5: (2005).
(§7) In vitro activity of the test articles were tested in combination by the Checkerboard assay. See, for example, Lorian, V. Antibiotics in Laboratory Medicine. Edition 5: (2005). The assay was carried out in duplicates. The starting concentrations for the test articles was determined as per the MIC data. Two-fold serial dilutions of 8×MIC for the antifungal agents; Itraconazole and Ketoconazole was performed separately. When Itraconazole and Ketoconazole were combined in a microtiter plate, the concentration of both agents was 2×MIC. 1× final concentration of the antifungal agents were obtained when they were combined with the 10^6 CFU/mL fungal spore inoculum in the microtiter plate. The plates were incubated at 35° C. for 3-5 days. The assay plates were visually inspected to confirm the MIC endpoint and used to calculate the Fractional Inhibitory Concentration (FIC) Index to determine any synergistic interaction.
(§8) The FIC Index was calculated as follows:
(§9) FIC Index=FICA+FICB • where, A and B are the MIC of the test article and an antifungal in combination (in a single well). MICA and MICB are the MICs of each antifungal individually.
(§10) FIC Index value was used to categorize the interaction, as follows:
(§11) To determine if Itraconazole and Ketoconazole combination had synergistic antifungal activity, a synergy assay was carried out with Itraconazole (1 μg/mL, 0.5 μg/mL, 0.25 μg/mL, 0.125 μg/mL, 0.0625 μg/mL, 0.0312 μg/mL, and 0.0156 μg/mL) and Ketoconazole (8 μg/mL, 4 μg/mL, 2 μg/mL, 1 μg/mL, 0.5 μg/mL, 0.25 μg/mL, 0.125 μg/mL, 0.0625 μg/mL, 0.0312 μg/mL, 0.0156 μg/mL and 0.0078 μg/mL) against Aspergillus fumigatus alone, Candida albicans alone, and against Aspergillus fumigatus+Candida albicans co-culture.

[5] = tested on: Candida albicans ATCC 90028 spores; assay: Checkerboard synergy assay; conditions: ATCC90028, FIG. 6 synergy data, agent alone
Description: as §6, §7, §8, §9, §10, §11

[6] = tested on: co-culture of Aspergillus fumigatus + Candida albicans spores (1:1); assay: Checkerboard synergy assay, co-culture; conditions: FIG. 7 synergy data, agent alone
Description: as §6
as §7, with “The assay plates were visually inspected to confirm the MIC endpoint and used to calculate the Fractional Inhibitory Concentration (FIC) Index to determine any synergistic interaction.” left out
The FIC Index was calculated as follows: […]

Candida albicans = assay: Culture and sensitivity, Patient 7; conditions: culture from Patient 7
Text: (§12) The patient underwent the standard workup for CRS, sleep disorder, and nasal obstruction, plus our diagnostic skin test and sinus CT scan.

[7] = tested on: S. aureus, a gram negative bacteria; assay: Culture and sensitivity, Patient 7; conditions: culture from Patient 7
Text: as §12

[8] = Table 3, Aspergillus fumigatus alone, 10^6 CFU/mL spores, 3-5 days at 35° C.
[9] = Table 4, repeated MIC study, Aspergillus fumigatus alone
[10] = ATCC90028, Table 3, 10^6 CFU/mL spores, 3-5 days at 35° C., read-out: MIC
[11] = Aspergillus fumigatus, Table 3, read-out: MIC
[12] = Aspergillus fumigatus, Table 4, repeated MIC study, agent alone, read-out: MIC

| Compound | MIC [1, 8] | MIC [1, 9] | MIC [2, 10] | MIC ([2]; Table 4, repeated MIC study) | MIC [3, 11] | MIC [3, 12] | MIC [4] | MIC [5] | MIC [6] | Sensitivity of cultured Candida albicans (Candida albicans) | Sensitivity of cultured bacteria [7] | MIC ([3]; Table 4, repeated MIC study, agent alone, listed as Itraconazone) |
| --- | --- | --- | --- | --- | --- | --- | --- | --- | --- | --- | --- | --- |
| CC(=O)N1CCN(c2ccc(OCC3COC(Cn4ccnc4)(c4ccc(Cl)cc4Cl)O3)cc2)CC1 (stereo not drawn) [Ketoconazole] | 16 µg/mL (≈ 30.1 µM) | 8 µg/mL (≈ 15.1 µM) | 0.06 µg/mL (≈ 0.113 µM) | 0.06 µg/mL (≈ 0.113 µM) | 16 µg/mL (≈ 30.1 µM) | 8 µg/mL (≈ 15.1 µM) | > 4 µg/mL | > 0.0312 µg/mL | > 4 µg/mL | sensitive |  |  |
| NC[C@H]1O[C@H](O[C@H]2[C@H](O)[C@@H](O[C@H]3O[C@H](CO)[C@@H](O)[C@H](N)[C@H]3O)[C@H](N)C[C@@H]2N)[C@H](N)C[C@@H]1O [tobramycin] |  |  |  |  |  |  |  |  |  |  | sensitive |  |
| CCC(C)n1ncn(-c2ccc(N3CCN(c4ccc(OCC5COC(Cn6cncn6)(c6ccc(Cl)cc6Cl)O5)cc4)CC3)cc2)c1=O (stereo not drawn) [Itraconazole] | 0.5 µg/mL (≈ 0.709 µM) | 1 µg/mL (≈ 1.42 µM) | 0.06 µg/mL (≈ 0.085 µM) | 0.06 µg/mL (≈ 0.085 µM) | 0.5 µg/mL (≈ 0.709 µM) | 1 µg/mL (≈ 1.42 µM) | > 0.5 µg/mL | > 0.0312 µg/mL | > 0.5 µg/mL |  |  | 1 µg/mL (≈ 1.42 µM) |
